For two compounds, IC50 results are on record in BindingDB's records for doi:10.1016/j.ejmech.2019.111807 (Universitat De Barcelona, 2020).

What is called IC50 is the concentration that gives 50% inhibition.

This series is described as follows: Bioactivation in CYP1A1 (unknown origin) transfected CHO cells assessed as CYP1A1-mediated drug activation by measuring reduction in cell viability.

Regarding `CCCCc1c2c(c(C)c3c1C(=O)OC3)Oc1ccccc1O2`, the IC50 was 400 nM. For the compound `CCCCCCc1c2c(c(C)c3c1C(=O)OC3)Oc1ccccc1O2`, the IC50 came to 2600 nM.
